From patent publication US5508180A, “Biocatalytic oxidation using soybean peroxidase” (Enzymol International, Inc., priority 1994, dated 1996)

Key:
soybean peroxidase [1] = target: T1, soybean peroxidase (Glycine max, UniProt O22443); experiment: Chlorination of dimedone to 2-chlorodimedone catalyzed by soybean peroxidase; type: biochemical; details: for Absorbance Units at 307 nm: pH 2, 120 ppu SBP, 1 mM H2O2, room temperature
T1 construct: secreted heme glycoprotein, reported 37 kDa
Procedure: A stock solution (9.5 mM dimedone) was prepared by adding 1 g. 5,5-dimethyl-1,3-cyclohexane dione (dimedone) to […]. The solution was stirred to dissolve the dimedone and the pH adjusted to 2 with HCl. Chlorination of dimedone was catalyzed by soybean peroxidase (120 ppu) at pH 2 and 1 mM H2 O2. Increase in absorbance at 307 nm, corresponding to the absorbance maximum of 2-chlorodimedone was followed at room temperature and is shown in Table 9.
The effect of temperature on cholrination of dimedone was studied under these conditions. Reactions were performed as described above with increasing assay temperature.

soybean peroxidase [2] = target: T1, soybean peroxidase; experiment: N-demethylation of N,N-dimethylanthranilic acid methyl ester by soybean peroxidase; type: biochemical
Procedure: N,N-Dimethylanthranilic acid methyl ester (DMA) and the product of N-demethylation, N-methylanthranilic acid methyl ester (NMA), were purchased from TCI America (Portland, Oreg.). […] Using 1 g. (5mM) DMA in 25 mM acetate, pH 4.5, 120 ppu SBP and 1 mM H202, the increases observed were: 295 nm - 0.727 AU per min; 379 nm -0.403 AU per min. To optimize N-demethylation, the effect of pH was studied using 25 mM buffers at the appropriate pH.

T1 sequence (O22443 27-332): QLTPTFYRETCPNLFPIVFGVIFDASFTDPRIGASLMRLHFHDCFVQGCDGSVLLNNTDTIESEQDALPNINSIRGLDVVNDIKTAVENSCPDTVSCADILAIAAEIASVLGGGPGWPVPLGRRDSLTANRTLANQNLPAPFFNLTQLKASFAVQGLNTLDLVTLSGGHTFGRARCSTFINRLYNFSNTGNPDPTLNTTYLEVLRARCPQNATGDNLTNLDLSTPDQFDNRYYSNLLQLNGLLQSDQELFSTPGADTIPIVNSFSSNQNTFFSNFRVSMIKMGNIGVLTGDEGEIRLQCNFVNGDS

SMILES | dA per min at 307 nm (soybean peroxidase [1]; 25 °C, pH 2) | dA per min at 307 nm (soybean peroxidase [1]; 35 °C, pH 2) | dA per min at 307 nm (soybean peroxidase [1]; 45 °C, pH 2) | dA per min at 307 nm (soybean peroxidase [1]; 55 °C, pH 2) | dA per min at 307 nm (soybean peroxidase [1]; 65 °C, pH 2) | dA per min at 307 nm (soybean peroxidase [1]; 75 °C, pH 2) | optimal temperature of oxidative chlorination (soybean peroxidase [1]; pH 2) | Absorbance Units at 307 nm (soybean peroxidase [1]; time of reaction 0 min) [Absorbance Units] | Absorbance Units at 307 nm (soybean peroxidase [1]; time of reaction 1 min) [Absorbance Units] | Absorbance Units at 307 nm (soybean peroxidase [1]; time of reaction 2 min) [Absorbance Units] | Absorbance Units at 307 nm (soybean peroxidase [1]; time of reaction 3 min) [Absorbance Units] | Absorbance Units at 307 nm (soybean peroxidase [1]; time of reaction 7 min) [Absorbance Units] | increase in absorbance at 295 nm (soybean peroxidase [2]; 5mM DMA, 25 mM acetate pH 4.5, 120 ppu SBP, 1 mM H2O2) [AU per min] | dA per min at 379 nm (soybean peroxidase [2]; pH 1, 25 mM buffer) | dA per min at 379 nm (soybean peroxidase [2]; pH 2, 25 mM buffer) | dA per min at 379 nm (soybean peroxidase [2]; pH 3, 25 mM buffer) | dA per min at 379 nm (soybean peroxidase [2]; pH 4, 25 mM buffer) | dA per min at 379 nm (soybean peroxidase [2]; pH 5, 25 mM buffer) | dA per min at 379 nm (soybean peroxidase [2]; pH 6, 25 mM buffer) | dA per min at 379 nm (soybean peroxidase [2]; pH 7, 25 mM buffer)
CC1(C)CC(=O)CC(=O)C1 [dimedone, 5,5-dimethyl-1,3-cyclohexane dione] | 0.1066 | 0.1204 | 0.1962 | 0.1792 | 0.0155 | 0.0181 | about 45 °C | 0.175 | 0.275 | 0.510 | 0.800 | 0.868 |  |  |  |  |  |  |  | 
COC(=O)c1ccccc1N(C)C [DMA, N,N-Dimethylanthranilic acid methyl ester] |  |  |  |  |  |  |  |  |  |  |  |  | 0.727 | 0.005 | 0.2603 | 0.099 | 0.181 | 0.2401 | 0.1095 | 0.0065
